Test results as given in PMC9321894, “Design and Anticancer Properties of New Water-Soluble Ruthenium–Cyclopentadienyl Complexes” (Pharmaceuticals, 2022).
Where two headings read alike, the source gives them in different places. Marks after values point to notes of the source that are not given here.

Legend:
[1] = test system: A2780 ovarian cancer cells; design: method as in PMID 21450266, PMID 20200702, PMID 20422091; details: A2780, 72 h; cited from earlier work
[2] = test system: MDAMB231 triple-negative breast cancer cells; design: method as in PMID 21450266, PMID 20200702, PMID 20422091; details: MDAMB231, 72 h; cited from earlier work
HT29 colon cancer cells [3] = test system: HT29 colon cancer cells; design: method as in PMID 21450266, PMID 20200702, PMID 20422091; details: HT29, 72 h; cited from earlier work
Solubility in water = format: physicochemical; details: in presence of air, 25 °C
[4] = Stability in water in presence of air (UV-vis, 1H and 31P NMR); format: physicochemical; details: for Stability in water, Time / Stability in water, Time (Days): in presence of air, 25 °C, time without hydrolysis
Procedure: The stability of all the complexes in water was evaluated by ^31P NMR and UV–visible spectroscopies. Generally, a 5 mm NMR tube was charged in the air with the 10 mg of each complex and D2O (0.8 mL). ^1H NMR and ^31P NMR were monitored for four days to evaluate if there was any decomposition product. Decomposition/instability of the compound can be assessed by the disappearance of the NMR signals and/or by the appearance of new signals that could not be assigned to the known complex, beyond the appearance of free mTPPMS phosphine signals. Any eventual changes in the charge transfer bands between ruthenium and ligands were followed by UV–visible in the 300–900 nm range.

[5] = n-Octanol/water partition coefficient, shake-flask method; format: physicochemical; details: room temperature
Procedure: The lipophilicity of the complexes was measured by the shake-flask method. Distilled water and n-octanol were mixed vigorously for 24 h at 25 °C, to promote solvent saturation in both phases, before the experiments. […] Aliquots of stock solutions were equilibrated with octanol for 4 h in a mechanical shaker. The phase ratio was 2 mL/2 mL (water/n-octanol). The aqueous and octanol layers were carefully separated (by centrifugation at 5000 rpm for 10 min), and UV–vis absorption spectra of the compounds were registered in both phases. The concentration for each sample was determined using the calibration curve. Triplicate experiments have been performed for each complex and the averages were calculated.

[6] = test system: A2780 ovarian cancer cells; assay: MTT cytotoxicity assay, A2780; format: cell-based, human; details: A2780, 72 h, mean ± SD n = 3
Procedure: (§1) The cytotoxic activity of all complexes was screened against A2780 (ovarian, Sigma-Aldrich, Lisboa, Portugal), MDAMB231 (breast, triple negative, ATCC), and HT29 (colon, ATCC) human cancer cells. Cells were grown in RPMI 1640 (A2780) or DMEM containing GlutaMax-I (MDAMB231), or McCoy’s (HT29) supplemented with 10% FBS and 1% penicillin/streptomycin (Invitrogen, Lisboa, Portugal). All cell lines were kept in a CO2 incubator (Heraeus, Hanau, Germany) with 5% CO2 at 37 °C in a humidified atmosphere. Cell viability was measured using the colorimetric MTT (3-(4,5-dimethylthiazol-2-yl)-2,5-diphenyltetrazolium bromide) assay. For the assays, cells were seeded in 200 μL of complete medium in 96-well plates and incubated at 37 °C for 24 h prior to complex treatment to allow cell adherence. The stock solutions in water (20 mM) of the complexes were freshly prepared and used for sequential dilutions in medium within the concentration range of 10^−10–10^−4 M. Cisplatin was also included in this study as a positive control. After careful removal of the medium, […] of a serial dilution of compounds in fresh medium was added to the cells, and incubation was carried out for 72 h at 37 °C. At the end of the treatment, the medium was discarded, and the cells were incubated with […] of an MTT solution in PBS (0.5 mg mL^−1). After 3 h incubation, medium was removed, and DMSO was added to solubilize the purple formazan crystals formed. The absorbance at 570 nm was measured using a plate spectrophotometer (Power Wave Xs, Bio-Tek, Winooski, VT, USA). Each experiment was repeated at least three times and each concentration tested in at least six replicates. The IC50 values were calculated from dose–response curves analyzed with the GraphPad Prism software (version 5.0).

[7] = test system: MDAMB231 triple-negative breast cancer cells; assay: MTT cytotoxicity assay, MDAMB231; format: cell-based, human; details: MDAMB231, 72 h; for IC50: mean ± SD n = 3
Procedure: as §1

HT29 colon cancer cells [8] = assay: MTT cytotoxicity assay, HT29; format: cell-based, human; details: HT29, 72 h; for IC50: mean ± SD n = 3
Procedure: as §1

In the case of `N.N.[Cl][Pt][Cl]` [CisPt, Cisplatin], the IC50 [1] is given as 1900 ± 100 nM, the IC50 [2] is given as 39 ± 5 µM and the IC50 (HT29 colon cancer cells [3]) is given as 7 ± 2 µM.
With `O=S(=O)([O-])C(F)(F)F.O=S(=O)([O-])c1cccc(P(c2ccccc2)c2ccccc2)c1.O=S(=O)([O-])c1cccc(P(c2ccccc2)c2ccccc2)c1.[Na+].[Na+].[Ru+2].c1c[nH]cn1.c1cc[cH-]c1` [Compound 1, [RuCp(mTPPMSNa)2(ImH)][CF3SO3]] the “S(H2O)” value (Solubility in water) was 21.4 mg/mL.
For `NCCCn1ccnc1.O=S(=O)([O-])C(F)(F)F.O=S(=O)([O-])c1cccc(P(c2ccccc2)c2ccccc2)c1.O=S(=O)([O-])c1cccc(P(c2ccccc2)c2ccccc2)c1.[Na+].[Na+].[Ru+2].c1cc[cH-]c1` [Compound 4, [RuCp(mTPPMSNa)2(3-ApIm)][CF3SO3]], the “S(H2O)” value (Solubility in water) was 48.6 mg/mL, the “S(H2O)” value (Solubility in water; value in brackets) was 0.049 M and the “Time stable in water” value ([4]; aqueous solution) was 24 h. The “Stability in water, Time” value [4] was 1 days and the “Log Po/w” value [5] was 4.43 ± 0.03.
For `COc1ccc(-n2ccnc2)cc1.O=S(=O)([O-])C(F)(F)F.O=S(=O)([O-])c1cccc(P(c2ccccc2)c2ccccc2)c1.O=S(=O)([O-])c1cccc(P(c2ccccc2)c2ccccc2)c1.[Na+].[Na+].[Ru+2].c1cc[cH-]c1` [Compound 5, [RuCp(mTPPMSNa)2(4-MpIm)][CF3SO3]], the “S(H2O)” value (Solubility in water) was 28.8 mg/mL, the “S(H2O)” value (Solubility in water; value in brackets) was 0.029 M and the “Stability in water, Time” value [4] was 0.12 days.
In the case of “[RuCp(mTPPMSNa)2(1-BI)][CF3SO3] [Compound 2]”, the “S(H2O)” value (Solubility in water) is reported as 38.6 mg/mL, the “S(H2O)” value (Solubility in water; value in brackets) is reported as 0.039 M and the “Stability in water, Time” value [4] is reported as 0.25 days.
In the case of “[RuCp(mTPPMSNa)2(1-BuIm)][CF3SO3] [Compound 3]”, the “S(H2O)” value (Solubility in water) is reported as 42.8 mg/mL, the “S(H2O)” value (Solubility in water; value in brackets) is reported as 0.043 M and the “Stability in water, Time” value [4] is reported as 0.12 days.
With “[RuCp(mTPPMSNa)(dpk)][CF3SO3] [Compound 7]” the “S(H2O)” value (Solubility in water) was 19.3 mg/mL, the “S(H2O)” value (Solubility in water; value in brackets) was 0.019 M and the “Changes in the UV–vis spectra in aqueous solution” value ([4]; over 4 days at 37 °C) was “insignificant”. The “Stability in water, Time (Days)” value [4] was >4 ^[b] Days, the “Log Po/w” value [5] was 5.95 ± 0.07 and the IC50 [6] was 450 ± 300 nM. For the same molecule, the “Cytotoxicity (in words)” value [7] was “not cytotoxic”, the IC50 [7] was over 100 µM and the “Cytotoxicity (in words)” value (HT29 colon cancer cells [8]) was “not cytotoxic”. The IC50 (HT29 colon cancer cells [8]) was over 100 µM.
For “[RuCp(mTPPMSNa)(pbt)][CF3SO3] [Compound 8]”, the “S(H2O)” value (Solubility in water) was 20.0 mg/mL, the “S(H2O)” value (Solubility in water; value in brackets) was 0.02 M and the “Stability in water by NMR (in words)” value ([4]; D2O, 4 days, UV–vis bands decrease due to precipitation) was “remained intact without the formation of new species”. For the same molecule, the “Stability in water, Time (Days)” value [4] was >4 ^[b,c] Days, the IC50 [6] was 200 ± 80 nM and the IC50 [7] was 25.4 ± 5 µM. The IC50 (HT29 colon cancer cells [8]) was 11.3 ± 2.4 µM.
